Patent US20050282755A1, “Compositions having antimicrobial activity and uses thereof” (priority 2004, published 2005)
Converted amounts (≈) assume the structure as drawn. Non-standard residues stand in square brackets, D forms with d. Residues, ends and D or L forms follow the SMILES beside them. *: point of attachment. Palmitoyl = CCCCCCCCCCCCCCCC(=O)*; Lauroyl = CCCCCCCCCCCC(=O)*; Hexanoyl = CCCCCC(=O)*

Tests used:
Assay type in all cases: cell-based
[1] = test system: Staphylococcus aureus ATCC 29213; assay: MIC, NCCLS M7-A6 broth microdilution, cation-adjusted Mueller Hinton broth (Table 9, no superscript); details: ATCC 29213
In short: (§1)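 Values come from a broth microdilution assay run in cation-adjusted Mueller Hinton broth with an inoculum of 5×10^5 to 1×10^6 CFU/milliliter, incubated overnight at 37° C and read as absence of visible turbidity.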

[2] = test system: Salmonella dublin (Lane); assay: MIC, NCCLS M7-A6 broth microdilution (Table 9, no superscript)
In short: as §1

[3] = test system: Staphylococcus epidermidis ATCC 12228; assay: as above; details: ATCC 12228
In short: as §1

[4] = test system: Escherichia coli ATCC 25922; assay: as above; details: ATCC 25922
In short: as §1

[5] = test system: Pseudomonas aeruginosa ATCC 27853; assay: as above; details: ATCC 27853
In short: as §1

[6] = test system: Candida albicans ATCC 18804; assay: MIC in yeasts, NCCLS M27-A2 broth microdilution, RPMI 1640 (Table 9, letter e); details: ATCC 18804
Description: Briefly, RPMI 1640 supplemented with glutamine and phenol red as a pH indicator was used in the broth microdilution method. A 96-well plate was inoculated so that the final inoculum of yeast for each well contained between 0.5×10^3 and 2.5×10^3 CFU/milliliter. […] Plates were incubated for 24 to 48 hours at 37° C. The lowest concentration of peptide that contained no visible growth was determined as the MIC. MIC values that utilized this method of MIC determination are indicated in Table 9 with a subscript letter “e.” “Peptide Number” corresponds to peptide compositions and corresponding designations in Table 3.

Compound	MIC S. aureus [1]	MIC S. dublin [2]	MIC S. epidermidis [3]	MIC E. coli [4]	MIC P. aeruginosa [5]	MIC C. albicans [6]
CCCCCCCCCCCC(=O)N[C@@H](CCCNC(=N)N)C(=O)N[C@@H](CO)C(=O)N[C@@H](CCCNC(=N)N)C(=O)N[C@@H](Cc1c[nH]c2ccccc12)C(=O)N[C@@H](CCCNC(=N)N)C(=O)N[C@@H](CC(=O)O)C(=O)N[C@H](C(=O)N[C@@H](CC(C)C)C(=O)N[C@@H](CCCNC(=N)N)C(=O)N[C@@H](CC(N)=O)C(=O)N[C@@H](Cc1ccccc1)C(=O)N[C@@H](CC(C)C)C(=O)N[C@@H](CCCNC(=N)N)C(=O)N[C@@H](CC(C)C)C(=O)N[C@@H](CC(C)C)C(N)=O)C(C)C [Peptide 138, Lauryl-RSRWRDVLRNFLRLL-NH2] (Lauroyl-RSRWRDVLRNFLRLL-NH2)	>64 µg/mL	>64 µg/mL	>64 µg/mL	>64 µg/mL	>64 µg/mL	2e ug/mL
CCCCCCCCCCCC(=O)N[C@@H](CCCNC(=N)N)C(=O)N[C@@H](CO)C(=O)N[C@@H](CCCNC(=N)N)C(=O)N[C@@H](Cc1c[nH]c2ccccc12)C(=O)N[C@@H](CCCNC(=N)N)C(=O)N[C@@H](CC(=O)O)C(=O)N[C@@H](Cc1c[nH]c2ccccc12)C(=O)N[C@@H](C)C(=O)N[C@@H](CCCNC(=N)N)C(=O)N[C@@H](CC(N)=O)C(=O)N[C@@H](Cc1c[nH]c2ccccc12)C(=O)N[C@@H](CCSC)C(=O)N[C@@H](CCCNC(=N)N)C(=O)N[C@@H](Cc1c[nH]c2ccccc12)C(N)=O [Peptide 144, Lauryl-RSRWRDWARNWMRW-NH2] (Lauroyl-RSRWRDWARNWMRW-NH2)	32 µg/mL (≈ 14.3 µM)	64 µg/mL (≈ 28.5 µM)	8 µg/mL (≈ 3.57 µM)	>64 µg/mL	>64 µg/mL	32e ug/mL
CCCCCCCCCCCC(=O)N[C@H](CCCNC(=N)N)C(=O)N[C@H](CO)C(=O)N[C@H](CCCNC(=N)N)C(=O)N[C@H](Cc1c[nH]c2ccccc12)C(=O)N[C@H](CCCNC(=N)N)C(=O)N[C@H](CC(=O)O)C(=O)N[C@@H](C(=O)N[C@H](C)C(=O)N[C@H](CCCNC(=N)N)C(=O)N[C@H](CC(N)=O)C(N)=O)C(C)C [Peptide 117, Lauryl-rsrwrdvarn-NH2] (Lauroyl-[dR][dS][dR][dW][dR][dD][dV][dA][dR][dN]-NH2)	32 µg/mL (≈ 21.4 µM)	>64 µg/mL	16 µg/mL (≈ 10.7 µM)	>64 µg/mL	64 µg/mL (≈ 42.8 µM)	16e ug/mL
CCCCCCCCCCCC(=O)N[C@@H](CCCNC(=N)N)C(=O)N[C@@H](CO)C(=O)N[C@@H](CCCNC(=N)N)C(=O)N[C@@H](Cc1c[nH]c2ccccc12)C(=O)N[C@@H](CCCNC(=N)N)C(=O)N[C@@H](CC(=O)O)C(=O)N[C@@H](Cc1c[nH]c2ccccc12)C(=O)N[C@@H](C)C(=O)N[C@@H](CCCNC(=N)N)C(=O)N[C@@H](CC(N)=O)C(=O)N[C@@H](Cc1c[nH]c2ccccc12)C(=O)N[C@@H](CCSC)C(=O)N[C@@H](CCCNC(=N)N)C(=O)N[C@@H](Cc1c[nH]c2ccccc12)C(=O)N[C@@H](Cc1c[nH]c2ccccc12)C(N)=O [Peptide 145, Lauryl-RSRWRDWARNWMRWW-NH2] (Lauroyl-RSRWRDWARNWMRWW-NH2)	>64 µg/mL	>64 µg/mL	16 µg/mL (≈ 6.58 µM)	>64 µg/mL	>64 µg/mL	2e ug/mL
CCCCCC(=O)N[C@H](CCCNC(=N)N)C(=O)N[C@H](CO)C(=O)N[C@H](CCCNC(=N)N)C(=O)N[C@H](Cc1c[nH]c2ccccc12)C(=O)N[C@H](CCCNC(=N)N)C(=O)N[C@H](CC(=O)O)C(=O)N[C@@H](C(=O)N[C@H](C)C(=O)N[C@H](CCCNC(=N)N)C(=O)N[C@H](CC(N)=O)C(=O)N[C@H](Cc1ccccc1)C(=O)N[C@H](CC(C)C)C(=O)N[C@H](CCCNC(=N)N)C(N)=O)C(C)C [Peptide 251, Hexyl-rsrwrdvarnflr-NH2] (Hexanoyl-[dR][dS][dR][dW][dR][dD][dV][dA][dR][dN][dF][dL][dR]-NH2)						64e ug/mL
CCCCCCCCCCCC(=O)N[C@@H](CCCNC(=N)N)C(=O)N[C@@H](CO)C(=O)N[C@@H](CCCNC(=N)N)C(=O)N[C@@H](Cc1c[nH]c2ccccc12)C(=O)N[C@@H](CCCNC(=N)N)C(=O)N[C@@H](CC(=O)O)C(=O)N[C@H](C(N)=O)C(C)C [Peptide 103, Lauryl-RSRWRDV-NH2] (Lauroyl-RSRWRDV-NH2)	>32 µg/mL	>64 µg/mL	64 µg/mL (≈ 55.4 µM)	>64 µg/mL	>64 µg/mL	>64e ug/mL
CCCCCCCCCCCC(=O)N[C@@H](CCCNC(=N)N)C(=O)N[C@@H](CO)C(=O)N[C@@H](CCCNC(=N)N)C(=O)N[C@@H](Cc1c[nH]c2ccccc12)C(=O)N[C@@H](CCCNC(=N)N)C(=O)N[C@@H](CC(=O)O)C(=O)N[C@@H](Cc1c[nH]c2ccccc12)C(=O)N[C@@H](C)C(=O)N[C@@H](CCCNC(=N)N)C(=O)N[C@@H](CC(N)=O)C(=O)N[C@@H](Cc1c[nH]c2ccccc12)C(=O)N[C@@H](CCSC)C(=O)N[C@@H](CCCNC(=N)N)C(=O)N[C@@H](CC(C)C)C(=O)N[C@@H](CC(C)C)C(N)=O [Peptide 146, Lauryl-RSRWRDWARNWMRLL-NH2] (Lauroyl-RSRWRDWARNWMRLL-NH2)	64 µg/mL (≈ 28 µM)	64 µg/mL (≈ 28 µM)	4 µg/mL (≈ 1.75 µM)	>64 µg/mL	>64 µg/mL	2e ug/mL
CCCCCCCCCCCC(=O)N[C@@H](CCCNC(=N)N)C(=O)N[C@@H](CO)C(=O)N[C@@H](CCCNC(=N)N)C(=O)N[C@@H](Cc1c[nH]c2ccccc12)C(=O)N[C@@H](CCCNC(=N)N)C(=O)N[C@@H](CC(=O)O)C(=O)N[C@H](C(=O)N[C@@H](C)C(=O)N[C@@H](CCCNC(=N)N)C(=O)N[C@@H](CC(N)=O)C(=O)N[C@@H](Cc1ccccc1)C(=O)N[C@@H](CC(C)C)C(=O)N[C@@H](CCCNC(=N)N)C(N)=O)C(C)C [Peptide 135, Lauryl-RSRWRDVARNFLR-NH2] (Lauroyl-RSRWRDVARNFLR-NH2)	2 µg/mL (≈ 1.05 µM)	2 µg/mL (≈ 1.05 µM)	1 µg/mL (≈ 0.523 µM)	4 µg/mL (≈ 2.09 µM)	4 µg/mL (≈ 2.09 µM)	2e ug/mL
CCCCCCCCCCCC(=O)N[C@@H](Cc1c[nH]c2ccccc12)C(=O)N[C@@H](CCCNC(=N)N)C(=O)N[C@@H](CC(=O)O)C(=O)N[C@H](C(=O)N[C@@H](C)C(=O)N[C@@H](CCCNC(=N)N)C(=O)N[C@@H](CC(N)=O)C(=O)N[C@@H](Cc1ccccc1)C(=O)N[C@@H](CCSC)C(=O)N[C@@H](CCCNC(=N)N)C(N)=O)C(C)C [Peptide 112, Lauryl-WRDVARNFMR-NH2] (Lauroyl-WRDVARNFMR-NH2)	>64 µg/mL	>64 µg/mL				>64e ug/mL
CCCCCC(=O)NCCCC[C@H](NC(=O)[C@H](CCCNC(=N)N)NC(=O)[C@H](CC(C)C)NC(=O)[C@H](Cc1ccccc1)NC(=O)[C@H](CC(N)=O)NC(=O)[C@H](CCCNC(=N)N)NC(=O)[C@H](C)NC(=O)[C@@H](NC(=O)[C@H](CC(=O)O)NC(=O)[C@H](CCCNC(=N)N)NC(=O)[C@H](Cc1c[nH]c2ccccc12)NC(=O)[C@H](CCCNC(=N)N)NC(=O)[C@H](CO)NC(=O)[C@@H](N)CCCNC(=N)N)C(C)C)C(N)=O [Peptide 178, H2N-RSRWRDVARNFLRK(Hexanyl)-NH2] (H-RSRWRDVARNFLRK(Hexanoyl)-NH2)	>64 µg/mL	16 µg/mL (≈ 8.17 µM)	2 µg/mL (≈ 1.02 µM)	8 µg/mL (≈ 4.09 µM)	16 µg/mL (≈ 8.17 µM)	
CCCCCCCCCCCCCCCC(=O)NCCCC[C@H](NC(=O)[C@H](CCCNC(=N)N)NC(=O)[C@H](CC(C)C)NC(=O)[C@H](Cc1ccccc1)NC(=O)[C@H](CC(N)=O)NC(=O)[C@H](CCCNC(=N)N)NC(=O)[C@H](C)NC(=O)[C@@H](NC(=O)[C@H](CC(=O)O)NC(=O)[C@H](CCCNC(=N)N)NC(=O)[C@H](Cc1c[nH]c2ccccc12)NC(=O)[C@H](CCCNC(=N)N)NC(=O)[C@H](CO)NC(=O)[C@@H](N)CCCNC(=N)N)C(C)C)C(N)=O [Peptide 182, H2N-RSRWRDVARNFLRK(Palmitoyl)-NH2] (H-RSRWRDVARNFLRK(Palmitoyl)-NH2)	32 µg/mL (≈ 15.3 µM)	32 µg/mL (≈ 15.3 µM)	4 µg/mL (≈ 1.91 µM)	>64 µg/mL	64 µg/mL (≈ 30.5 µM)	
